According to patent publication US8685371B2, “Agents for detecting and imaging cell death” (Cambridge Enterprise Limited, priority 2008, dated 2014):
Values joined by “and” are separate entries in the source; they are usually repeats but may differ in a detail not shown here. Equal values may be shown once. Read-outs that look alike come from different tables or passages of the source.

How the values were obtained:
Assay in all cases: Surface plasmon resonance (SPR) binding to phosphatidylserine-coated L1 chip
[1] = target: T1, Rattus norvegicus synaptotagmin I C2A domain variant C2Am, S78C (S217C of full-length synaptotagmin I), SEQ ID NO: 1 (Rattus norvegicus, UniProt P21707, S217C); details: 37° C., 2 mM CaCl2, pH 7.4
T1 construct: GST (N, cleaved yes); linker between GST and C2A (part after the thrombin site) (N); made in house; host or cells: E. coli BL21
Excerpt: (§1) The Rattus norvegicus synaptotagmin sequence was acquired using the NCBI Genbank service (sequence identity NM_001033680; NM_001033680.2) and the C2A domain was selected from this sequence. Three candidate cysteine mutants were selected at: Ser217, Gln154, Asn248 (see FIG. 2). Appropriate primers for mutagenesis were designed with the use of Quikchange Primer Design software. The C2A-containing pGEX-2T vector (GE Healthcare, Chalfont St Giles, UK) was isolated from BL21 E. coli cells and underwent a double restriction digest to confirm its identity. Mutagenesis was performed by the Stratagene QuikChange Site-Directed Mutagenesis kit. E. coli DH5α competent cells were transformed with the mutant plasmid by heat shock and the amplified vector then isolated and sequenced. Finally, E. coli BL21 cells were transformed with the vector by electroporation.
(§2) S217C (position 78 of the C2A domain; position 217 of full-length Synaptotagmin I) mutant was selected as the best expressed site-directed mutant of C2A (C2Am).
(§3) Large multilamellar vesicles (LMVs) were prepared using three types of phospholipids (Phosphatidylserine, PS; Phosphatidylethanolamine, PE and Phosphatidylcholine, PC, Avanti Polar Lipids, Alabaster, Ala., USA). A sample of 2.6 μmol of phospholipids (PS:PE:PC mixture in chloroform; molar ratio 35:50:15) was dried under a gentle stream of nitrogen for half an hour and resuspended in 2.6 mL of C2A binding buffer (HBS=20 mM HEPES, 150 mM NaCl, pH 7.4, containing 2 mM CaCl2), by vigorous vortex mixing.
Surface Plasmon Resonance (SPR) analysis was performed on L1 sensor chips using a Biacore T100 system (Biacore, GE Healthcare).
In some experiments, the chip flow cells were washed with a 2-min pulse of a mixture of isopropanol/NaOH 50 mM (2:3 volume) at 5 μL, min^−1, and one coated with 5 μL of a suspension of SMVs containing 1 mM of phospholipids (at 1 μL min^−1), generating an average relative response of ca. 2,000 RU (relative units). Unbound multilamellar material was removed from the chip after SMV injection, by applying three 20s regeneration pulses of sodium hydroxide (50 mM, at 20 μL min^−1).
In other experiments, the chip flow cells were washed with two, 30 s pulses of 20 mM, 3-[(3Cholamidopropyl)dimethylammonio]-1-propanesulfonate (CHAPS, at 30 μL min−1), then one flow cell (test) was coated with a suspension of test SMVs (PS:PE:PC) containing 1 mM of phospholipids (at 5 μL min−1), until an average relative response of ca. 5000 RU (relative units) was reached. Unbound multilamellar material was removed from the lipid bilayer after SMV injection, by applying two, 30 s pulses of sodium hydroxide (50 mM, at 30 μL min−1).
Another flow cell was left uncoated as a control path. In some experiments, another flow cell (control) was coated with a suspension of control SMVs (PE:PC) containing 1 mM of phospholipids (at 5 μL min−1), until an average relative response of ca. 5000 RU (relative units). Control SMVs were prepared using PE and PC (molar ratio 77:23), and unbound material removed as above
After a stable baseline had been achieved, the proteins were allowed to interact sequentially with the chip surface of the two flow cells of interest, for 2 min (association phase) and 1 min (dissociation phase) at 30 μL min^−1 or for 60 s (association phase) at 40 μL min^−1 at 37° C. The phospholipid bilayer was regenerated using a 15 s or 20 s pulse of HBS containing 10 mM NaEDTA, or (HBS, 20 mm EDTA, pH 7.4) at 40 μL min^−1, after each individual injection.
(§4) Each protein solution was prepared automatically by the system at varying concentrations from 0 to 100 nM or from 5 nM to 75 nM using automated mix fraction preparation, and all injections were conducted in duplicate in C2A binding buffer at a flow rate of 30 μL min^−1 and 37° C. All concentrations were analyzed in duplicate. […]

[2] = target: T2, C2Am-AlxAF647: Rattus norvegicus synaptotagmin I C2A domain variant C2Am, S78C (S217C of full-length synaptotagmin I), SEQ ID NO: 1, labelled at cysteine-78 wit (Rattus norvegicus, UniProt P21707, S217C); details: 37° C., 2 mM CaCl2, pH 7.4
T2 construct: GST (N, cleaved yes); linker between GST and C2A (part after the thrombin site) (N); made in house; host or cells: E. coli BL21
Excerpt: as §1, §2
The mutant protein (C2Am) was covalently labeled with the fluorochrome Alexa Fluor 647 (AlxAF647), via a reaction between the cysteine-78 residue with the maleimide group of Alexa Fluor 647 C2 maleimide (Invitrogen). Briefly, the protein was reduced using 10 mM DTT for half an hour at room temperature. The protein was then washed in a 5-KDa vivaspin concentrator (Sartorius, Epsom, UK) in HNE buffer (20 mM HEPES, 100 mM NaCl, 5 mM EDTA, pH 7.4). This removed any residual DTT, which interferes with the conjugation reaction. The protein was kept at a concentration in the range 50-100 μM, and approximately a 10-fold molar excess of the fluorescent maleimide dye was added. The reaction was allowed to proceed on a magnetic stirrer at 4° C. overnight. Gel filtration was used to separate the modified protein from unreacted dye. Electrospray ionisation (ESI) mass spectrometry was used to confirm successful modification of the protein, which yielded a single species of approximately 17204 Da (C2Am-AlxAF647). ESI mass spectrometry of Annexin V-Alexa Fluor647™ was also performed. Briefly, samples were desalted using Millipore mC18 Ziptips and eluted with 50% MeCN/0.2% formic acid. Samples were analyzed by direct infusion at a flow rate of […] into a Waters QtofMicro, using 70% MeOH/0.2% formic acid as the mobile phase. Typical settings: capillary 3000V, cone 90V, capillary temperature 80° C., desolvation temperature 150° C., calibration by myoglobin and/or trypsinogen collected later in the same file. Deconvolution was conducted using Waters MassLynx MaxEnt 1 software (Waters Ltd, Manchester, UK). […]

[3] = target: T3, Rattus norvegicus synaptotagmin I C2A domain, wild type (Rattus norvegicus, UniProt P21707); details: FIG. 8; thermal equilibrium SPR data, 1:1 Langmuir binding model, protein 5-95 nM, 37° C., 2 mM CaCl2, pH 7.4; read-out: dissociation constant (KD)
T3 construct: GST (N); made in house; host or cells: E. coli BL21
Description: as §3
Surface Plasmon Resonance (SPR) analysis was performed on L1 sensor chips using a Biacore T100 system (Biacore, GE Healthcare). […]
as §4, with “duplicate. Protein affinity for PS was evaluated by estimating the thermal equilibrium affinity dissociation constants (KD), obtained from the response values 4 s before the end of the association phase of the corresponding interaction sensorgrams (FIG. 8).” for “duplicate.”

[4] = kinetic analysis of SPR data, read-out: KD (kinetics)

T1 sequence (P21707 140-267 S217C): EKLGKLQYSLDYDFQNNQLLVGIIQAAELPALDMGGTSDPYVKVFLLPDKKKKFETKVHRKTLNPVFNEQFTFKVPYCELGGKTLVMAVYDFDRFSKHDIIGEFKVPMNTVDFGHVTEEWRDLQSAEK
T2 sequence (P21707 140-267 S217C): as above
T3 sequence (P21707 141-260 limits assumed): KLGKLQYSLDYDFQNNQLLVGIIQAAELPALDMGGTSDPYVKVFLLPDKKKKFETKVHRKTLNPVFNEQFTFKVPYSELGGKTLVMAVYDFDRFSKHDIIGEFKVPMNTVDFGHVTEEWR

Substance: Phosphatidylserine
- Kd ([1]; FIG. 8, thermal equilibrium SPR data, 1:1 Langmuir binding model, protein 5-95 nM, read-out: dissociation constant (KD)): 49.4 ± 4.9 nM
- Kd ([1]; affinity analysis of SPR data, duplicate injections, listed as PS, read-out: KD (affinity)): 55.4 ± 3.5 nM
- Kd ([1]; affinity analysis of SPR data, duplicate injections, read-out: KD (affinity)): ~55 nM and 55.4 nM
- ka (kinetics) ([1]; kinetic analysis of SPR data): 2.01e+06 M⁻¹ s⁻¹
- kd (kinetics) ([1]; kinetic analysis of SPR data): 0.110 s⁻¹
- Kd [1, 4]: 54.2 nM
- Kd ([2]; affinity analysis of SPR data, read-out: KD (affinity)): 71 ± 6.9 nM
- ka (kinetics) ([2]; kinetic analysis of SPR data): 2.14e+06 M⁻¹ s⁻¹
- kd (kinetics) ([2]; kinetic analysis of SPR data): 0.188 s⁻¹
- Kd [2, 4]: 87.9 nM
- Kd [3]: 48.5 ± 3.5 nM
